Measurements: ChEMBL document CHEMBL4342517, “Design, Synthesis, and Mechanism Study of Benzenesulfonamide-Containing Phenylalanine Derivatives as Novel HIV-1 Capsid Inhibitors with Improved Antiviral Activities” (J Med Chem, 2020)
Active and inactive are the calls of the source. The calls are words filed in the database; no cut-off is given here.

Key:
[1] = Stability in human plasma assessed as compound remaining level at 2 uM incubated for 120 mins at 37 degC by LC-MS/MS analysis; format: ADME, cell-free; conditions: 2 h
[2] = target: Structural capsid protein (Human immunodeficiency virus 1) (UniProt Q76129); assay: Inhibition of HIV1 NL4-3 capsid protein assembly at 50 uM measured every 1 min for 19 mins
[3] = system: Human immunodeficiency virus 1; assay: Antiviral activity against HIV1 Env-pseudotyped virus in human U87.CD4.CCR5 target cells assessed as reduction in viral infection at late stage; format: functional, organism-based; conditions: Human immunodeficiency virus 1, U87/CD4/CCR5
[4] = system: Human immunodeficiency virus 1; assay: Antiviral activity against HIV1 Env-pseudotyped virus in human U87.CD4.CCR5 target cells assessed as reduction in viral infection at early stage; format: functional, organism-based; conditions: Human immunodeficiency virus 1, U87/CD4/CCR5
[5] = system: TZM; assay: Cytotoxicity in uninfected human TZM-bl assessed as reduction in cell viability incubated for 1 day by Cyto-tox-Glo cytotoxicity assay; format: cell-based; conditions: 24 h
[6] = system: Human immunodeficiency virus 1; assay: Antiviral activity against HIV1 NL4-3 infected in human TZM-bl cells assessed as reduction in virus induced cytopathogenicity incubated for 1 day by luciferase reporter gene assay; format: functional, organism-based; conditions: Human immunodeficiency virus 1, NL4-3, TZM-bl, 24 h
[7] = Cmax in Sprague-Dawley rat at 20 mg/kg, po measured during 5 mins to 12 hrs by LC-MS analysis; format: ADME, organism-based; parameters: dose 20 mg/kg, route oral; conditions: in vivo
[8] = Half life in Sprague-Dawley rat at 20 mg/kg, po measured during 5 mins to 12 hrs by LC-MS analysis; conditions: in vivo
[9] = AUC (0 to infinity) in Sprague-Dawley rat at 20 mg/kg, po measured during 5 mins to 12 hrs by LC-MS analysis; format: ADME, organism-based; parameters: dose 20 mg/kg, time infinity, route oral; conditions: in vivo
[10] = Mean residence time (0 to infinity) in Sprague-Dawley rat at 20 mg/kg, po measured during 5 mins to 12 hrs by LC-MS analysis; conditions: in vivo
[11] = Oral bioavailability in Sprague-Dawley rat at 20 mg/kg measured during 5 mins to 12 hrs by LC-MS analysis; format: ADME, organism-based; conditions: in vivo
[12] = Half life in Sprague-Dawley rat at 2 mg/kg, iv measured during 5 mins to 12 hrs by LC-MS analysis; conditions: in vivo
[13] = Cmax in Sprague-Dawley rat at 2 mg/kg, iv measured during 5 mins to 12 hrs by LC-MS analysis; format: ADME, organism-based; parameters: dose 2 mg/kg, route intravenous; conditions: in vivo
[14] = AUC (0 to t) in Sprague-Dawley rat at 2 mg/kg, iv measured during 5 mins to 12 hrs by LC-MS analysis; format: ADME, organism-based; parameters: dose 2 mg/kg, time 0.083-12 hr, route intravenous; conditions: in vivo
[15] = AUC (0 to infinity) in Sprague-Dawley rat at 2 mg/kg, iv measured during 5 mins to 12 hrs by LC-MS analysis; format: ADME, organism-based; parameters: dose 2 mg/kg, time infinity, route intravenous; conditions: in vivo
[16] = Volume of distribution in Sprague-Dawley rat at 2 mg/kg, iv measured during 5 mins to 12 hrs by LC-MS analysis; format: ADME, organism-based; conditions: in vivo
[17] = Clearance in Sprague-Dawley rat at 2 mg/kg, iv measured during 5 mins to 12 hrs by LC-MS analysis; format: ADME, organism-based; conditions: in vivo
[18] = Mean residence time (0 to infinity) in Sprague-Dawley rat at 2 mg/kg, iv measured during 5 mins to 12 hrs by LC-MS analysis; conditions: in vivo
[19] = Acute toxicity in Kunming mouse assessed as induction of animal death at 1000 mg/kg, ig administered as single dose; format: organism-based; conditions: in vivo, po
[20] = Acute toxicity in Kunming mouse assessed as induction of abnormal behaviors by measuring lethargy at 1000 mg/kg, ig administered as single dose; format: organism-based; conditions: in vivo, po
[21] = Acute toxicity in Kunming mouse assessed as induction of abnormal behaviors by measuring clonic convulsion at 1000 mg/kg, ig administered as single dose; format: organism-based; conditions: in vivo, po
[22] = Acute toxicity in Kunming mouse assessed as induction of abnormal behaviors by measuring anorexia at 1000 mg/kg, ig administered as single dose; format: organism-based; conditions: in vivo, po
[23] = Acute toxicity in Kunming mouse assessed as induction of abnormal behaviors by measuring ruffled fur at 1000 mg/kg, ig administered as single dose; format: organism-based; conditions: in vivo, po
[24] = Acute toxicity in Kunming mouse assessed as increase in body weight at 1000 mg/kg, ig administered as single dose; format: organism-based; conditions: in vivo, po
[25] = system: Human immunodeficiency virus 1; assay: Antiviral activity against HIV1 3B infected in human MT4 cells assessed as reduction in virus-induced cell death incubated for 5 days by MTT assay; format: functional, organism-based; conditions: Human immunodeficiency virus 1, 3B, MT4, 120 h
[26] = system: MT4; assay: Cytotoxicity in mock-infected human MT4 assessed as reduction in cell viability incubated for 5 days by MTT assay; format: cell-based; conditions: mt4, 120 h
[27] = human, microsomes
Description: Intrinsic clearance in human liver microsomes in presence of NADPH regenerating system by LC-MS/MS analysis

[28] = in vivo; conditions: Sprague-Dawley, rat, po, 20 mg/kg
[29] = in vivo; conditions: Sprague-Dawley, rat, iv, 2 mg/kg
[30] = in vitro; conditions: human, liver microsomes
Description: Stability in human liver microsomes assessed as compound remaining level incubated for 60 mins in presence of NADPH regenerating system by LC-MS/MS analysis

[31] = in vitro; conditions: human, liver microsomes; remark: listed apart in the source
Description: Stability in human liver microsomes assessed as compound remaining level incubated for 60 mins in absence of NADPH regenerating system by LC-MS/MS analysis

[32] = system: Human immunodeficiency virus 2; assay: Antiviral activity against HIV2 ROD infected in human MT4 cells assessed as reduction in virus-induced cell death incubated for 5 days by MTT assay; conditions: Human immunodeficiency virus 2, ISOLATE ROD, MT4, 120 h

Structural capsid protein (Human immunodeficiency virus 1), sequence (Q76129 as listed by the source): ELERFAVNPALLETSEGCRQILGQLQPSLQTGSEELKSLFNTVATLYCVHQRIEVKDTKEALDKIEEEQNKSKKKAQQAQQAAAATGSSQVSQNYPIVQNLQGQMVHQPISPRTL

SMILES: COc1ccc(N(C)C(=O)[C@H](Cc2ccccc2)NC(=O)CN2CCN(S(=O)(=O)c3ccc(N)cc3)CC2=O)cc1
- Stability [1]: 88.5%
- inhibition [2]: Active
- IC50 [3]: 240 nM
- IC50 [4]: 8.96 nM
- CC50 [5]: > 34500 nM
- EC50 [6]: 90 nM
- Cmax [7]: 83.8 ng/mL
- half-life [8]: 72 min
- AUC [9]: 120.6 ng·h/mL
- MRT inf [10]: 108 min
- F [11]: 23%
- half-life [12]: 60 min
- Cmax [13]: 1280 ng/mL
- AUC(0-t) [14]: 506 ng·h/mL
- AUC [15]: 511.5 ng·h/mL
- Vd [16]: 5.75 L/kg
- clearance [17]: 67.7 mL/min/kg
- MRT inf [18]: 42 min
- Activity [19]: Non-Toxic
- Activity [20]: Non-Toxic
- Activity [21]: Non-Toxic
- Activity [22]: Non-Toxic
- Activity [23]: Non-Toxic
- Activity [24]: Non-Toxic
- EC50 [25]: 210 nM
- CC50 [26]: 179000 nM
- CLH [27]: 342 µL/min/mg
- Tmax [28]: 15 min
- Tmax [29]: 4.98 min
- remaining at 1 h [30]: 0%
- remaining at 1 h [31]: 93.4%
- EC50 [32]: 31 nM
